Test results published in patent publication US11096906B2, “Pharmaceutical composition for preventing or treating Alzheimer's disease” (SFCBIO. CO., LTD., priority 2015, dated 2021).

Assays:
Format in all cases: cell-based
sAPPβ protein = experiment: Amount of sAPPβ protein released from APPwt-CHO cells, by western blot; settings: for reduction of the amount of sAPPβ protein as compared to the control group: APPwt-CHO cells
Protocol: (§1) In order to evaluate the ability of suppressing β-amyloid formation of Compounds 1-3, APPwt-CHO cells obtained by overexpressing APP in CHO cells were used and the amount of the sAPPβ protein cleaved by β-secretase and released out of the cells was measured by western blot. When the APP precursor protein is cleaved first by β-secretase, sAPPβ is released out of the cell. The protein remaining attached to the membrane is cleaved again by γ-secretase to produce β-amyloid. Accordingly, the amount of β-secretase and sAPPβ is proportional to the amount of the produced β-amyloid. Therefore, the amount of the two proteins was measured by western blot.

β-secretase = experiment: Amount of β-secretase protein in APPwt-CHO cells, by western blot; settings: for reduction of the amount of β-secretase protein as compared to the control group: APPwt-CHO cells
Protocol: as §1

APP*t-CHO cells = experiment: MTT-based cytotoxicity assay
Protocol: The cytotoxicity of Compounds 1-3 separated and identified in Examples 1-5 was investigated by MTT-based cytotoxicity assay. APP*t-CHO cells treated with Compounds 1-3 were cultured for 24 hours. After adding a 5 mg/mL MTT solution, the cells were cultured for 4 hours. After removing the culture medium and lysing the cells for 30 minutes by adding DMSO, absorbance was measured at 540 nm using the Emax precision microplate reader (Molecular Devices, CA, USA).

[1] = 100 μg/mL, cells cultured 24 hours, MTT

Structure (SMILES) | reduction of the amount of sAPPβ protein as compared to the control group (sAPPβ protein; 10 μg/mL) | reduction of the amount of sAPPβ protein as compared to the control group (sAPPβ protein; 20 μg/mL) | reduction of the amount of β-secretase protein as compared to the control group (β-secretase; 10 μg/mL) | reduction of the amount of β-secretase protein as compared to the control group (β-secretase; 20 μg/mL) | cytotoxicity (APP*t-CHO cells; [1]) | reduction of the amount of sAPPβ protein as compared to the control group (sAPPβ protein; 100 μg/mL) | reduction of the amount of β-secretase protein as compared to the control group (β-secretase; 100 μg/mL) | reduction of the amount of sAPPβ (in words) (sAPPβ protein; 20 μg/mL) | decrease of the amount of β-secretase (in words) (β-secretase) | cytotoxicity (APP*t-CHO cells; 20 μg/mL) | concentration at which toxicity was shown (APP*t-CHO cells; cells cultured 24 hours, MTT)
CCCC(=O)c1c(O)cc(O)cc1O [Compound 1, butyrylphloroglucinol] | about 20% | about 70% | about 10% | about 30% | no toxicity | – | – | – | – | – | –
CCC(=O)c1c(O)cc(O)c(C)c1O [Compound 2, 2-propionyl-4-methylphloroglucinol] | – | about 40% | – | about 40% | no toxicity | about 80% | about 60% | – | – | – | –
CCCC(=O)c1c(O)cc(O)c(C)c1O [Compound 3, 2-butyryl-4-methylphloroglucinol] | about 40% | about 80% | about 20% | about 30% | showed toxicity | – | – | almost perfectly | effectively decreased | no toxicity was observed | ≥ 30000 ng/mL
